Data as given in ChEMBL document CHEMBL1201862, “PubChem BioAssay data set” (2004).
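Growth conditions: 96-well plates. Treatment: test compound, 48 hours, 5 concentrations. Analysis: linear interpolation between bracketing concentrations; unreached endpoints set to highest concentration. The concentration for 50% growth inhibition is given as GI50.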 Active and inactive are the calls of the source. No stated cut-off is given here; in the data, active = GI50 up to about 1.1 µM and inactive = higher.

Tests used:
Assay in all cases: growth of human tumour cells (NCI), 48 h
KM12 = system: KM12
MDA-MB-435 = system: MDA-MB-435
EKVX = system: EKVX
SF-295 = system: SF-295
MCF7 = system: MCF7
NCI-H522 = system: NCI-H522
COLO 205 = system: COLO 205
PC-3 = system: PC-3
OVCAR-5 = system: OVCAR-5
NCI-H23 = system: NCI-H23
NCI/ADR-RES = system: NCI/ADR-RES
Hs-578T = system: Hs-578T
M14 = system: M14
786-0 = system: 786-0
UACC-257 = system: UACC-257
SF-268 = system: SF-268
MDA-N = system: MDA-N
OVCAR-4 = system: OVCAR-4
Malme-3M = system: Malme-3M
HCT-116 = system: HCT-116
NCI-H226 = system: NCI-H226
HCT-15 = system: HCT-15
SW-620 = system: SW-620
A549 = system: A549
SNB-19 = system: SNB-19
ACHN = system: ACHN
U-251 = system: U-251
SK-OV-3 = system: SK-OV-3
SNB-75 = system: SNB-75
T47D = system: T47D
A498 = system: A498
OVCAR-3 = system: OVCAR-3
IGROV-1 = system: IGROV-1
RPMI-8226 = system: RPMI-8226
HOP-92 = system: HOP-92
OVCAR-8 = system: OVCAR-8
K562 = system: K562
SK-MEL-28 = system: SK-MEL-28
MDA-MB-231 = system: MDA-MB-231
SK-MEL-5 = system: SK-MEL-5
UO-31 = system: UO-31
CAKI-1 = system: CAKI-1
NCI-H460 = system: NCI-H460
RXF 393 = system: RXF 393
HOP-62 = system: HOP-62
SF-539 = system: SF-539
LOX IMVI = system: LOX IMVI
MOLT-4 = system: MOLT-4
DU-145 = system: DU-145
HT-29 = system: HT-29
SK-MEL-2 = system: SK-MEL-2
HL-60 = system: HL-60
SR = system: SR
CCRF-CEM = system: CCRF-CEM
HCC 2998 = system: HCC 2998
TK-10 = system: TK-10
UACC-62 = system: UACC-62
BT-549 = system: BT-549
SN12C = system: SN12C

For `O=S(=O)(O)c1ccc2c(/N=N\c3cccc4ccccc34)c(O)c(S(=O)(=O)O)cc2c1`, the GI50 (KM12) was > 100 µM (inactive), the GI50 (MDA-MB-435) was > 100 µM (inactive) and the GI50 (EKVX) was > 100 µM (inactive). The GI50 (SF-295) was > 100 µM (inactive), the GI50 (MCF7) was > 100 µM (inactive) and the GI50 (NCI-H522) was > 100 µM (inactive). For the same compound, the GI50 (COLO 205) was > 100 µM (inactive), the GI50 (PC-3) was > 100 µM (inactive) and the GI50 (OVCAR-5) was > 100 µM (inactive). For the same compound, the GI50 (NCI-H23) was > 100 µM (inactive), the GI50 (NCI/ADR-RES) was > 100 µM (inactive) and the GI50 (Hs-578T) was > 100 µM (inactive). The GI50 (M14) was > 100 µM (inactive), the GI50 (786-0) was > 100 µM (inactive) and the GI50 (UACC-257) was > 100 µM (inactive). For the same compound, the GI50 (SF-268) was > 100 µM (inactive), the GI50 (MDA-N) was > 100 µM (inactive) and the GI50 (OVCAR-4) was > 100 µM (inactive). The GI50 (Malme-3M) was > 61.7 µM (inactive), the GI50 (HCT-116) was > 100 µM (inactive) and the GI50 (NCI-H226) was > 100 µM (inactive). The GI50 (HCT-15) was greater than 100 µM, the GI50 (SW-620) was > 100 µM (inactive) and the GI50 (A549) was > 100 µM (inactive). For the same compound, the GI50 (SNB-19) was > 100 µM (inactive), the GI50 (ACHN) was > 100 µM (inactive) and the GI50 (U-251) was > 100 µM (inactive). The GI50 (SK-OV-3) was > 100 µM (inactive), the GI50 (SNB-75) was > 100 µM (inactive) and the GI50 (T47D) was > 100 µM (inactive). The GI50 (A498) was > 100 µM (inactive), the GI50 (OVCAR-3) was > 100 µM (inactive) and the GI50 (IGROV-1) was > 100 µM (inactive). For the same compound, the GI50 (RPMI-8226) was > 100 µM (inactive), the GI50 (HOP-92) was > 100 µM (inactive) and the GI50 (OVCAR-8) was > 100 µM (inactive). The GI50 (K562) was > 100 µM (inactive), the GI50 (SK-MEL-28) was > 100 µM (inactive) and the GI50 (MDA-MB-231) was > 100 µM (inactive). For the same compound, the GI50 (SK-MEL-5) was > 100 µM (inactive), the GI50 (UO-31) was > 100 µM (inactive) and the GI50 (CAKI-1) was > 100 µM (inactive). For the same compound, the GI50 (NCI-H460) was > 100 µM (inactive), the GI50 (RXF 393) was > 100 µM (inactive) and the GI50 (HOP-62) was > 100 µM (inactive). For the same compound, the GI50 (SF-539) was > 100 µM (inactive), the GI50 (LOX IMVI) was > 100 µM (inactive) and the GI50 (MOLT-4) was > 100 µM (inactive). The GI50 (DU-145) was > 100 µM (inactive), the GI50 (HT-29) was > 100 µM (inactive) and the GI50 (SK-MEL-2) was > 100 µM (inactive). The GI50 (HL-60) was > 100 µM (inactive), the GI50 (SR) was > 48.6 µM (inactive) and the GI50 (CCRF-CEM) was > 100 µM (inactive). The GI50 (HCC 2998) was > 100 µM (inactive), the GI50 (TK-10) was > 100 µM (inactive) and the GI50 (UACC-62) was > 100 µM (inactive). The GI50 (BT-549) was > 100 µM (inactive).

`COP(=N[Si](C)(C)C)(OC)OC` was tested, and the GI50 (KM12) was > 100 µM (inactive), the GI50 (MDA-MB-435) was > 100 µM (inactive) and the GI50 (EKVX) was > 100 µM (inactive). For the same compound, the GI50 (MCF7) was > 100 µM (inactive), the GI50 (NCI-H522) was > 100 µM (inactive) and the GI50 (COLO 205) was > 100 µM (inactive). The GI50 (PC-3) was > 100 µM (inactive), the GI50 (OVCAR-5) was > 100 µM (inactive) and the GI50 (NCI-H23) was > 100 µM (inactive). For the same compound, the GI50 (NCI/ADR-RES) was > 100 µM (inactive), the GI50 (Hs-578T) was > 100 µM (inactive) and the GI50 (M14) was > 100 µM (inactive). For the same compound, the GI50 (786-0) was > 100 µM (inactive), the GI50 (UACC-257) was > 100 µM (inactive) and the GI50 (SN12C) was > 100 µM (inactive). For the same compound, the GI50 (SF-268) was > 100 µM (inactive), the GI50 (MDA-N) was > 100 µM (inactive) and the GI50 (OVCAR-4) was > 100 µM (inactive). For the same compound, the GI50 (Malme-3M) was > 100 µM (inactive), the GI50 (HCT-116) was > 100 µM (inactive) and the GI50 (NCI-H226) was > 100 µM (inactive). For the same compound, the GI50 (HCT-15) was greater than 100 µM, the GI50 (SW-620) was > 100 µM (inactive) and the GI50 (A549) was > 100 µM (inactive). The GI50 (SNB-19) was > 100 µM (inactive), the GI50 (ACHN) was > 100 µM (inactive) and the GI50 (U-251) was > 100 µM (inactive). For the same compound, the GI50 (SK-OV-3) was > 100 µM (inactive), the GI50 (SNB-75) was > 100 µM (inactive) and the GI50 (T47D) was > 100 µM (inactive). For the same compound, the GI50 (A498) was > 100 µM (inactive), the GI50 (OVCAR-3) was > 100 µM (inactive) and the GI50 (IGROV-1) was > 100 µM (inactive). For the same compound, the GI50 (RPMI-8226) was > 100 µM (inactive), the GI50 (HOP-92) was > 100 µM (inactive) and the GI50 (OVCAR-8) was > 100 µM (inactive). For the same compound, the GI50 (K562) was > 100 µM (inactive), the GI50 (SK-MEL-28) was > 100 µM (inactive) and the GI50 (MDA-MB-231) was > 100 µM (inactive). The GI50 (SK-MEL-5) was > 100 µM (inactive), the GI50 (UO-31) was > 100 µM (inactive) and the GI50 (CAKI-1) was > 100 µM (inactive). The GI50 (NCI-H460) was > 100 µM (inactive), the GI50 (RXF 393) was > 100 µM (inactive) and the GI50 (HOP-62) was > 100 µM (inactive). The GI50 (SF-539) was > 100 µM (inactive), the GI50 (LOX IMVI) was > 100 µM (inactive) and the GI50 (MOLT-4) was > 100 µM (inactive). For the same compound, the GI50 (DU-145) was > 100 µM (inactive), the GI50 (HT-29) was > 100 µM (inactive) and the GI50 (SK-MEL-2) was > 100 µM (inactive). The GI50 (HL-60) was > 100 µM (inactive), the GI50 (SR) was > 100 µM (inactive) and the GI50 (CCRF-CEM) was > 100 µM (inactive). For the same compound, the GI50 (HCC 2998) was > 100 µM (inactive), the GI50 (TK-10) was > 100 µM (inactive) and the GI50 (UACC-62) was > 100 µM (inactive). The GI50 (BT-549) was > 100 µM (inactive).
